Results published in US12092631B2, “Optical thromboelastography systems and methods” (The General Hospital Corporation, priority 2014, dated 2024).

How the values were obtained:
[1] = tested on: platelets in platelet rich plasma; test: OTEG platelet aggregation/disaggregation in platelet rich plasma specimens; type: cell-based; details: FIG. 19A
Protocol: FIG. 15B is a block-scheme representing an embodiment of the processing algorithm according to the invention for calculating the platelet aggregate size from speckle fluctuations in the plasma. Platelet rich plasma specimen is transferred into an OTEG cartridge, customized for platelet function assessment and preloaded with 20 μl Adenosine 5′-diphosphate solution (Sigma-Aldrich) (i.e. 5 μM final concentration of ADP in the […]). The cartridge is inserted in the OTEG device and speckle acquisition begins immediately. During acquisition, ADP triggers conformational changes followed by aggregation, which increase the average scattering particle radius. Since Ca′ ions are absent, coagulation cascade is not initiated and the plasma appears as a primarily viscous liquid with the viscosity of η=3 centipoises (@ 37° C.), particularly at small length scales probed by platelets. Compared to small isolated platelets, large aggregates experience a shorter range of diffusive motion and induce slower speckle fluctuations. To estimate the rate of platelet aggregation, speckle frames are processed and speckle intensity autocorrelation functions are calculated. Since plasma is an optically dilute material, the mean square displacements (MSD) values of platelet aggregates can be extracted from the g2(t) curves, using the DLS formalism, as shown in FIG. 7(B), box 2. Fitting the MSD to a linear model of MSD=6Dt at early times provides the diffusion coefficient, D, of scattering particles. The effective scattering radius is then obtained from the Stokes-Einstein relation as: α=KbT/(6πDη), where Kb is the Boltzman constant and T is the temperature (degrees Kelvin).

[2] = tested on: platelets in human whole blood; test: OTEG platelet aggregate size in ADP-activated human whole blood; type: cell-based; details: FIG. 8B
Protocol: FIGS. 8A, 8B: Preliminary studies to assess platelet aggregation using OTEG methodology. FIG. 8A: Increasing aggregate radius, a, of polystyrene beads (rad=1.5 μm) caused by adding MgCl2 salt is detected by OTEG. Aggregate size was related with salt concentration, confirmed by other reports. FIG. 8B: In human whole blood, OTEG detects a 5-fold and 2.5-fold increase in aggregate size with addition of 10 and 5 μM ADP relative to blood without ADP (control). […] To enable platelet function assessment (PLT channel) via the embodiment of the OTEG device of the present invention, a new strategy was implemented to quantify platelet aggregation in whole blood. […] To estimate the rate and extent of platelet aggregation, speckle frames are processed and MSD values are calculated, as above (FIG. 5; box 3). […] The effective particle radius, a, is then obtained from the Stokes-Einstein relation (SER) (FIG. 5: box 4c), the aggregate growth from the baseline at time t=0 is plotted, and the maximum extent of platelet aggregation (RPLT) is estimated at 10 min to quantify platelet function (FIG. 12B). […] We further verified the capability to detect platelet aggregation in ADP-activated blood and monitored the change of effective aggregate radius. […] Clearly, the effective aggregate radius increase with ADP concentration and can be detected with OTEG with high sensitivity. […]

## Nc1ncnc2c1ncn2[C@@H]1O[C@H](COP(=O)(O)OP(=O)(O)O)[C@@H](O)[C@H]1O [ADP, Adenosine 5′-diphosphate]
[1]; ADP final concentration 5 μM
  platelet aggregation detected by OTEG: rapid and complete platelet aggregation
[2]; 5 μM ADP
  increase in aggregate size relative to blood without ADP (control): 2.5 fold
[2]; 10 μM ADP
  increase in aggregate size relative to blood without ADP (control): 5 fold

## COC(=O)[C@H](c1ccccc1Cl)N1CCc2sccc2C1 [Clopidogrel]
[1]; ADP 5 μM plus Clopidogrel 3 μM
  platelet aggregation detected by OTEG: rapid initial aggregation, followed by a rapid disaggregation
[1]; ADP 5 μM plus Clopidogrel 30 μM
  platelet aggregation detected by OTEG: no aggregation
